Data on two molecules can be found in US20030158118A1, “Combination of cimetidine and cysteine derivatives for treating cancer” (priority 2001, published 2003).

This assay concerns CT26 colorectal cancer cells. The experiment in a line: Tumor growth in BALB/c mice grafted with syngenic CT26 colorectal cancer cells. It is filed as in vivo. Particulars: day 33; drinking water: compound 20 1.5 mg/ml (150 mg/kg daily), cimetidine or N-acetyl cysteine 0.75 mg/ml (75 mg/kg daily); vs vehicle. As for the experimental part: The effect of a complex of the invention and the effect of the components of the complex is tested on tumor growth in BALB/c mice grafted with syngenic CT26 colorectal cancer cells. The aim of the study is to compare the effect on tumor growth of the complex of the invention versus the effect of the two components of the complex individually. […] Compound 20, cimetidine and […] dissolved in drinking water. […] The solutions are available ad libitum in the entire study period. […] The doses of cimetidine and N-acetylcysteine are selected to correspond to the doses of each individual compound obtained by administration of […] of compound 20. In these studies, female BALB/c mice with an age of 6 weeks are used. Ten mice are included per group. The mice are caged in standard cages at a temperature of 21° C.-23° C. controlled via the ambient ventilation system in the laboratory. Light cycle is 12-hour dark and 12-hour light (lights on 06.00). Diet is Altromin 1314 special formulation, Produced by Altromin Denmark, Chr. Pedersen A/S, 4100 Ringsted, Denmark. Water is acidified with citric acid. Diet and water is administered ad libitum. The mice are randomised to test groups of ten mice. After one week of acclimatisation each mouse is injected subcutaneously with appr. […] Tumor diameters are measured in two dimensions using a digital slide gauge.

In turn, `CN/C(=N/CCSCc1nc[nH]c1C)NC#N` [cimetidine] gave a tumor growth inhibited of 8%.
Under `CC(=O)N[C@@H](CS)C(=O)O` [N-acetyl cysteine] stands 19%.
